Measurements taken from the NIST ThermoML archive (doi:10.1016/j.jct.2005.05.003).

Test: mn = molality of the nth substance listed, in mol/kg
Conditions: Liquid, Vibrating tube method

[Ca+2].[Cl-].[Cl-] [calcium chloride] + CO
Conditions	mass density [kg/m3]
298.27 K, 184 kPa, m1 = 2.393	977.23
298.27 K, 5004 kPa, m1 = 2.393	980.74
298.27 K, 9983 kPa, m1 = 2.393	984.25
298.27 K, 14989 kPa, m1 = 2.393	987.66
298.27 K, 19998 kPa, m1 = 2.393	990.95
298.27 K, 25001 kPa, m1 = 2.393	994.14
298.27 K, 30011 kPa, m1 = 2.393	997.26
298.27 K, 34980 kPa, m1 = 2.393	1000.22
298.27 K, 39985 kPa, m1 = 2.393	1003.15
298.28 K, 175 kPa, m1 = 0.2853	814.28
298.28 K, 179 kPa, m1 = 0.6588	848.89
298.28 K, 202 kPa, m1 = 0.1082	797.82
298.28 K, 4988 kPa, m1 = 0.6588	853.15
298.28 K, 5000 kPa, m1 = 0.2853	818.77
298.28 K, 5011 kPa, m1 = 0.1082	802.48
298.28 K, 9997 kPa, m1 = 0.6588	857.39
298.28 K, 10009 kPa, m1 = 0.2853	823.22
298.28 K, 10011 kPa, m1 = 0.1082	807.08
298.28 K, 14985 kPa, m1 = 0.2853	827.41
298.28 K, 15002 kPa, m1 = 0.1082	811.44
298.28 K, 15012 kPa, m1 = 0.6588	861.47
298.28 K, 19991 kPa, m1 = 0.1082	815.57
298.28 K, 20010 kPa, m1 = 0.6588	865.31
298.28 K, 20018 kPa, m1 = 0.2853	831.46
298.28 K, 24989 kPa, m1 = 0.2853	835.29
298.28 K, 24991 kPa, m1 = 0.6588	868.99
298.28 K, 24997 kPa, m1 = 0.1082	819.63
298.28 K, 29982 kPa, m1 = 0.2853	838.98
298.28 K, 29989 kPa, m1 = 0.1082	823.45
298.28 K, 29991 kPa, m1 = 0.6588	872.56
298.28 K, 34983 kPa, m1 = 0.6588	875.99
298.28 K, 34994 kPa, m1 = 0.2853	842.53
298.28 K, 35017 kPa, m1 = 0.1082	827.11
298.28 K, 39984 kPa, m1 = 0.6588	879.31
298.28 K, 39998 kPa, m1 = 0.1082	830.67
298.28 K, 40005 kPa, m1 = 0.2853	845.94
323.22 K, 232 kPa, m1 = 0.6588	824.35
323.22 K, 237 kPa, m1 = 2.393	952.79
323.22 K, 245 kPa, m1 = 0.1082	773.87
323.22 K, 4998 kPa, m1 = 0.6588	829.19
323.22 K, 5003 kPa, m1 = 2.393	956.69
323.22 K, 5013 kPa, m1 = 0.1082	779.2
323.22 K, 9984 kPa, m1 = 0.1082	784.43
323.22 K, 9988 kPa, m1 = 2.393	960.6
323.22 K, 10013 kPa, m1 = 0.6588	834.04
323.22 K, 14985 kPa, m1 = 2.393	964.38
323.22 K, 14994 kPa, m1 = 0.1082	789.4
323.22 K, 15000 kPa, m1 = 0.6588	838.59
323.22 K, 19991 kPa, m1 = 0.1082	794.09
323.22 K, 20010 kPa, m1 = 0.6588	842.96
323.22 K, 20014 kPa, m1 = 2.393	968.03
323.22 K, 24988 kPa, m1 = 0.6588	847.08
323.22 K, 24989 kPa, m1 = 0.1082	798.56
323.22 K, 25005 kPa, m1 = 2.393	971.52
323.22 K, 29988 kPa, m1 = 0.1082	802.81
323.22 K, 29988 kPa, m1 = 2.393	974.89
323.22 K, 30009 kPa, m1 = 0.6588	851.08
323.22 K, 34980 kPa, m1 = 2.393	978.17
323.22 K, 34991 kPa, m1 = 0.1082	806.89
323.22 K, 35005 kPa, m1 = 0.6588	854.89
323.22 K, 39995 kPa, m1 = 0.1082	810.79
323.22 K, 39995 kPa, m1 = 0.6588	858.56
323.22 K, 40017 kPa, m1 = 2.393	981.39
323.23 K, 226 kPa, m1 = 0.2853	790.12
323.23 K, 5015 kPa, m1 = 0.2853	795.26
323.23 K, 9993 kPa, m1 = 0.2853	800.3
323.23 K, 14993 kPa, m1 = 0.2853	805.07
323.23 K, 20003 kPa, m1 = 0.2853	809.62
323.23 K, 25013 kPa, m1 = 0.2853	813.96
323.23 K, 30015 kPa, m1 = 0.2853	818.08
323.23 K, 34988 kPa, m1 = 0.2853	821.99
323.23 K, 40005 kPa, m1 = 0.2853	825.78
348.23 K, 303 kPa, m1 = 2.393	928.79
348.23 K, 4983 kPa, m1 = 2.393	933.12
348.23 K, 9990 kPa, m1 = 2.393	937.54
348.23 K, 15005 kPa, m1 = 2.393	941.76
348.23 K, 20000 kPa, m1 = 2.393	945.79
348.23 K, 24993 kPa, m1 = 2.393	949.65
348.23 K, 29995 kPa, m1 = 2.393	953.38
348.23 K, 35000 kPa, m1 = 2.393	956.97
348.23 K, 39984 kPa, m1 = 2.393	960.44
348.24 K, 308 kPa, m1 = 0.1082	748.93
348.24 K, 321 kPa, m1 = 0.6588	799.27
348.24 K, 326 kPa, m1 = 0.2853	765.1
348.24 K, 4986 kPa, m1 = 0.6588	804.77
348.24 K, 5001 kPa, m1 = 0.2853	770.94
348.24 K, 5010 kPa, m1 = 0.1082	755.08
348.24 K, 9985 kPa, m1 = 0.1082	761.11
348.24 K, 9995 kPa, m1 = 0.6588	810.3
348.24 K, 9998 kPa, m1 = 0.2853	776.76
348.24 K, 14994 kPa, m1 = 0.1082	766.79
348.24 K, 14997 kPa, m1 = 0.6588	815.48
348.24 K, 15007 kPa, m1 = 0.2853	782.23
348.24 K, 19987 kPa, m1 = 0.6588	820.39
348.24 K, 19991 kPa, m1 = 0.2853	787.34
348.24 K, 20008 kPa, m1 = 0.1082	772.12
348.24 K, 24982 kPa, m1 = 0.1082	777.11
348.24 K, 24994 kPa, m1 = 0.6588	825.04
348.24 K, 24997 kPa, m1 = 0.2853	792.2
348.24 K, 29990 kPa, m1 = 0.1082	781.87
348.24 K, 29991 kPa, m1 = 0.2853	796.8
348.24 K, 29992 kPa, m1 = 0.6588	829.46
348.24 K, 34986 kPa, m1 = 0.2853	801.19
348.24 K, 34998 kPa, m1 = 0.6588	833.71
348.24 K, 35025 kPa, m1 = 0.1082	786.39
348.24 K, 39992 kPa, m1 = 0.1082	790.73
348.24 K, 40048 kPa, m1 = 0.6588	837.76
348.24 K, 40055 kPa, m1 = 0.2853	805.38
373.24 K, 517 kPa, m1 = 2.393	904.38
373.24 K, 4985 kPa, m1 = 2.393	909.14
373.24 K, 10000 kPa, m1 = 2.393	914.19
373.24 K, 14988 kPa, m1 = 2.393	918.95
373.24 K, 20003 kPa, m1 = 2.393	923.48
373.24 K, 25015 kPa, m1 = 2.393	927.81
373.24 K, 29988 kPa, m1 = 2.393	931.93
373.24 K, 35016 kPa, m1 = 2.393	935.94
373.24 K, 40000 kPa, m1 = 2.393	939.74
373.26 K, 523 kPa, m1 = 0.2853	738.51
373.26 K, 527 kPa, m1 = 0.1082	722.32
373.26 K, 534 kPa, m1 = 0.6588	773.01
373.26 K, 4997 kPa, m1 = 0.2853	745.17
373.26 K, 4999 kPa, m1 = 0.1082	729.31
373.26 K, 5013 kPa, m1 = 0.6588	779.26
373.26 K, 9996 kPa, m1 = 0.2853	752.01
373.26 K, 10000 kPa, m1 = 0.6588	785.66
373.26 K, 10001 kPa, m1 = 0.1082	736.45
373.26 K, 14984 kPa, m1 = 0.2853	758.3
373.26 K, 14986 kPa, m1 = 0.6588	791.62
373.26 K, 15009 kPa, m1 = 0.1082	743.03
373.26 K, 19980 kPa, m1 = 0.2853	764.17
373.26 K, 19981 kPa, m1 = 0.1082	749.09
373.26 K, 20010 kPa, m1 = 0.6588	797.23
373.26 K, 24999 kPa, m1 = 0.2853	769.7
373.26 K, 25000 kPa, m1 = 0.6588	802.48
373.26 K, 25016 kPa, m1 = 0.1082	754.83
373.26 K, 29995 kPa, m1 = 0.1082	760.17
373.26 K, 29996 kPa, m1 = 0.6588	807.45
373.26 K, 30000 kPa, m1 = 0.2853	774.89
373.26 K, 34993 kPa, m1 = 0.2853	779.79
373.26 K, 35000 kPa, m1 = 0.6588	812.19
373.26 K, 35003 kPa, m1 = 0.1082	765.25
373.26 K, 40001 kPa, m1 = 0.6588	816.69
373.26 K, 40004 kPa, m1 = 0.2853	784.46
373.26 K, 40011 kPa, m1 = 0.1082	770.07
398.25 K, 888 kPa, m1 = 2.393	878.49
398.25 K, 5007 kPa, m1 = 2.393	883.68
398.25 K, 10016 kPa, m1 = 2.393	889.54
398.25 K, 14986 kPa, m1 = 2.393	895.06
398.25 K, 19983 kPa, m1 = 2.393	900.25
398.25 K, 24997 kPa, m1 = 2.393	905.15
398.25 K, 29989 kPa, m1 = 2.393	909.82
398.25 K, 34996 kPa, m1 = 2.393	914.29
398.25 K, 40014 kPa, m1 = 2.393	918.56
398.27 K, 880 kPa, m1 = 0.6588	744.38
398.27 K, 899 kPa, m1 = 0.2853	709.27
398.27 K, 901 kPa, m1 = 0.1082	692.84
398.27 K, 4987 kPa, m1 = 0.6588	751.36
398.27 K, 4995 kPa, m1 = 0.2853	716.79
398.27 K, 4999 kPa, m1 = 0.1082	700.78
398.27 K, 9984 kPa, m1 = 0.2853	725.04
398.27 K, 9997 kPa, m1 = 0.6588	759.11
398.27 K, 10005 kPa, m1 = 0.1082	709.46
398.27 K, 14988 kPa, m1 = 0.2853	732.54
398.27 K, 15011 kPa, m1 = 0.1082	717.28
398.27 K, 15012 kPa, m1 = 0.6588	766.18
398.27 K, 19999 kPa, m1 = 0.2853	739.43
398.27 K, 20003 kPa, m1 = 0.1082	724.41
398.27 K, 20013 kPa, m1 = 0.6588	772.68
398.27 K, 24989 kPa, m1 = 0.2853	745.78
398.27 K, 25000 kPa, m1 = 0.6588	778.71
398.27 K, 25003 kPa, m1 = 0.1082	730.99
398.27 K, 29985 kPa, m1 = 0.6588	784.37
398.27 K, 30002 kPa, m1 = 0.2853	751.73
398.27 K, 30013 kPa, m1 = 0.1082	737.16
398.27 K, 34982 kPa, m1 = 0.1082	742.86
398.27 K, 34983 kPa, m1 = 0.2853	757.27
398.27 K, 35012 kPa, m1 = 0.6588	789.76
398.27 K, 39992 kPa, m1 = 0.2853	762.54
398.27 K, 39995 kPa, m1 = 0.1082	748.29
398.27 K, 39999 kPa, m1 = 0.6588	794.79
